Reference: patent US9040545B2, “Heterocyclyl pyrazolopyrimidine analogues as selective JAK inhibitors” (Cellzome Limited, priority 2010, dated 2015)

Target: T1, Aurora B (Homo sapiens, UniProt Q96GD4)
T1 construct: cell lysates from Jurkat cells (ATCC TIB-152) used; endogenous in cells; host or cells: Jurkat cells (ATCC TIB-152), treated with pervanadate
Assay: Kinobeads assay, Aurora B
Assay type: binding
Settings: for IC50: lysate of pervanadate-treated Jurkat cells, read-out: Inhibition values (IC50) Aur B
Description: The compounds of the present invention as described in the previous examples were tested in a Kinobeads™ assay as described for ZAP-70 (WO-A 2007/137867). Briefly, test compounds (at various concentrations) and the affinity matrix with the immobilized aminopyrido-pyrimidine ligand 24 were added to cell lysate aliquots and allowed to bind to the proteins in the lysate sample. After the incubation time the beads with captured proteins were separated from the lysate. Bound proteins were then eluted and the presence of JAK2 and JAK3 was detected and quantified using specific antibodies in a dot blot procedure and the Odyssey infrared detection system. Dose response curves for individual kinases were generated and IC50 values calculated. Kinobeads™ assays for ZAP-70 (WO-A 2007/137867) and for kinase selectivity profiling (WO-A 2006/134056) have been previously described.
The affinity matrix was washed two times with 15 mL of 1×DP buffer containing 0.2% NP40 (IGEPAL® CA-630, Sigma, #I3021) and then resuspended in 1×DP buffer containing 0.2% NP40 (3% beads slurry).
5×DP buffer 250 mM Tris-HCl pH 7.4, 25% Glycerol, 7.5 mM MgCl2, 750 mM NaCl, 5 mM Na3VO4; filter the 5×DP buffer through a 0.22 μm filter and store in aliquots at −80° C. The 5×DP buffer is diluted with H2O to 1×DP buffer containing 1 mM DTT and 25 mM NaF.
Stock solutions of test compounds were prepared in DMSO. In a 96 well plate 30 μL solution of diluted test compounds at 5 mM in DMSO were prepared. Starting with this solution a 1:3 dilution series (9 steps) was prepared. For control experiments (no test compound) a buffer containing 2% DMSO was used.
Cell lysate (approximately 50 mg protein per plate) was thawed in a water bath at room temperature and then stored on ice. To the thawed cell lysate 1×DP 0.8% NP40 buffer containing protease inhibitors (1 tablet for 25 mL buffer; EDTA-free protease inhibitor cocktail; Roche Diagnostics 1873580) was added in order to reach a final protein concentration of 10 mg/mL total protein. The diluted cell lysate was stored on ice. Mixed Molt4/Ramos lysate was prepared by combining one volume of Molt4 lysate and two volumes of Ramos lysate (ratio 1:2).
To a 96 well filter plate (Multiscreen HTS, BV Filter Plates, Millipore #MSBVN1250) were added per well: 100 μL affinity matrix (3% beads slurry), 3 μL of compound solution, and 50 μL of diluted lysate. Plates were sealed and incubated for 3 hours in a cold room on a plate shaker (Heidolph tiramax 1000) at 750 rpm. Afterwards the plate was washed 3 times with 230 μL washing buffer (1×DP 0.4% NP40). The filter plate was placed on top of a collection 1 plate (Greiner bio-one, PP-microplate 96 well V-shape, 65120) and the beads were then eluted with 20 μL of sample buffer (100 mM Tris, pH 7.4, 4% SDS, 0.00025% bromophenol blue, 20% glycerol, 50 mM DTT). The eluate was frozen quickly at −80° C. and stored at −20° C.
The kinases in the eluates were detected and quantified by spotting on nitrocellulose membranes and using a first antibody directed against the kinase of interest and a fluorescently labelled secondary antibody (anti-rabbit IRDye™ antibody 800 (Licor, #926-32211). The Odyssey Infrared Imaging system from LI-COR Biosciences (Lincoln, Nebr., USA) was operated according to instructions provided by the manufacturer (Schutz-Geschwendener et al, 2004. Quantitative, two-color Western blot detection with infrared fluorescence. Published May 2004 by LI-COR Biosciences, www.licor.com).
After spotting of the eluates the nitrocellulose membrane (BioTrace NT; PALL, #BTNT30R) was first blocked by incubation with Odyssey blocking buffer (LICOR, 927-40000) for 1 hour at room temperature. Blocked membranes were then incubated for 16 hours at the temperature shown in Table 5 with the first antibody diluted in Odyssey blocking buffer (LICOR #927-40000). Afterwards the membrane was washed twice for 10 minutes with PBS buffer containing 0.2% Tween 20 at room temperature. […]

T1 sequence (Q96GD4 whole entry): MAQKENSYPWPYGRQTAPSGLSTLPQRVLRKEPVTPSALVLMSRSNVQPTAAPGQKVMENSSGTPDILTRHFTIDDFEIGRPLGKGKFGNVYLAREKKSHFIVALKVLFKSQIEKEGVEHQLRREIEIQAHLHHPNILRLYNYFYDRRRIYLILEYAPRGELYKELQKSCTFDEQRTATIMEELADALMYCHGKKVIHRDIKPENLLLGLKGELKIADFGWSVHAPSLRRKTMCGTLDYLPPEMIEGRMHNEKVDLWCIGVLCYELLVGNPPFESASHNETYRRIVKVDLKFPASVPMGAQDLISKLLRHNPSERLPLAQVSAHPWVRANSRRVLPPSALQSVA

SMILES | JAK3/AurB Fold Selectivity | IC50 [nM]
O=C1CC(Cn2cc(Nc3ncc4cnn(Cc5cc(F)cc(N6CCOCC6=O)c5)c4n3)cn2)CN1 (stereo not drawn) [Example 105, 4-(3-fluoro-5-((6-((1-((5-oxopyrrolidin-3-yl)methyl)-1H-pyrazol-4-yl)amino)-1H-pyrazolo[3,4-d]pyrimidin-1-yl)methyl)phenyl)morpholin-3-one] | >50 Fold | 100 to 1000
Cn1cc(Nc2ncc3cnn(Cc4cc(C(=O)N5CCOCC5)cc(F)c4F)c3n2)cn1 [Example 98, (3,4-difluoro-5-((6-((1-methyl-1H-pyrazol-4-yl)amino)-1H-pyrazolo[3,4-d]pyrimidin-1-yl)methyl)phenyl)(morpholino)methanone] | 3-10 Fold | < 100
Cn1cc(Nc2ncc3cnn(Cc4cccc(N5CCOCC5=O)c4F)c3n2)cn1 [Example 40, 4-(2-Fluoro-3-((6-((1-methyl-1H-pyrazol-4-yl)amino)-1H-pyrazolo[3,4-d]pyrimidin-1-yl)methyl)phenyl)morpholin-3-one] | 10-50 Fold | 100 to 1000
Cn1cc(Nc2ncc3cnn(Cc4cccc(-c5cn[nH]c5)c4)c3n2)cn1 [Example 118, 1-(3-(1H-pyrazol-4-yl)benzyl)-N-(1-methyl-1H-pyrazol-4-yl)-1H-pyrazolo[3,4-d]pyrimidin-6-amine] | 10-50 Fold | 1000 to 10000
CN(C)CCCn1cc(Nc2ncc3cnn(Cc4cccc(N5CCOCC5=O)c4)c3n2)cn1 [Example 28, 4-(3-((6-((1-(3-(Dimethylamino)propyl)-1H-pyrazol-4-yl)amino)-1H-pyrazolo[3,4-d]pyrimidin-1-yl)methyl)phenyl)morpholin-3-one] | >50 Fold | 100 to 1000
Cn1cc(Nc2ncc3cnn(Cc4cccc(N5CCOCC5)c4Cl)c3n2)cn1 [Example 103, 1-(2-chloro-3-morpholinobenzyl)-N-(1-methyl-1H-pyrazol-4-yl)-1H-pyrazolo[3,4-d]pyrimidin-6-amine] | 3-10 Fold | 100 to 1000
Cn1cc(Nc2ncc3cnn(Cc4cc(-c5cnn(C)c5)cc(F)c4F)c3n2)cn1 [Example 126, 1-(2,3-difluoro-5-(1-methyl-1H-pyrazol-4-yl)benzyl)-N-(1-methyl-1H-pyrazol-4-yl)-1H-pyrazolo[3,4-d]pyrimidin-6-amine] | >50 Fold | ≥ 10000

Now from value to compound:

JAK3/AurB Fold Selectivity | IC50 [nM] | SMILES
>50 Fold | 1000 to 10000 | NCCCn1cc(Nc2ncc3cnn(Cc4cccc(N5CCOCC5)c4)c3n2)cn1 [Example 34, N-(1-(3-Aminopropyl)-1H-pyrazol-4-yl)-1-(3-morpholinobenzyl)-1H-pyrazolo[3,4-d]pyrimidin-6-amine]
10-50 Fold | 1000 to 10000 | O=C(CCn1cc(Nc2ncc3cnn(Cc4cccc(N5CCOCC5)c4)c3n2)cn1)NC1CC1 [Example 35, N-Cyclopropyl-3-(4-((1-(3-morpholinobenzyl)-1H-pyrazolo[3,4-d]pyrimidin-6-yl)amino)-1H-pyrazol-1-yl)propanamide]
10-50 Fold | 100 to 1000 | OCCn1cc(Nc2ncc3cnn(Cc4cccc(N5CCOCC5)c4F)c3n2)cn1 [Example 39, 2-(4-((1-(2-Fluoro-3-morpholinobenzyl)-1H-pyrazolo[3,4-d]pyrimidin-6-yl)amino)-1H-pyrazol-1-yl)ethanol]
>50 Fold | 1000 to 10000 | CNC(=O)CCn1cc(Nc2ncc3cnn(Cc4cccc(N5CCOCC5)c4)c3n2)cn1 [Example 24, N-Methyl-3-(4-((1-(3-morpholinobenzyl)-1H-pyrazolo[3,4-d]pyrimidin-6-yl)amino)-1H-pyrazol-1-yl)propanamide]
>50 Fold | 1000 to 10000 | CN(C)CC1(Cn2cc(Nc3ncc4cnn(Cc5cccc(N6CCOCC6)c5)c4n3)cn2)COC1 [Example 31, N-(1-((3-((Dimethylamino)methyl)oxetan-3-yl)methyl)-1H-pyrazol-4-yl)-1-(3-morpholinobenzyl)-1H-pyrazolo[3,4-d]pyrimidin-6-amine]
